Where a name gives a salt, the structure may show the parent alone.
Tests used:
human OX1 receptor = molecular target: T1, human OX1 receptor (Homo sapiens, UniProt O43613); assay: Measurement of orexin receptor antagonistic activity (calcium fluorescence, FLIPRtetra); assay type: cell-based; conditions: CHO, 10 μM test compound; CHO cells expressing human OX1 receptor; OX-A 1 nM; read-out: Human Orexin1 receptor inhibition (at 10 μM)
T1 construct: expressed in transfected cells; host or cells: CHO cells
T1 sequence (O43613 1-425): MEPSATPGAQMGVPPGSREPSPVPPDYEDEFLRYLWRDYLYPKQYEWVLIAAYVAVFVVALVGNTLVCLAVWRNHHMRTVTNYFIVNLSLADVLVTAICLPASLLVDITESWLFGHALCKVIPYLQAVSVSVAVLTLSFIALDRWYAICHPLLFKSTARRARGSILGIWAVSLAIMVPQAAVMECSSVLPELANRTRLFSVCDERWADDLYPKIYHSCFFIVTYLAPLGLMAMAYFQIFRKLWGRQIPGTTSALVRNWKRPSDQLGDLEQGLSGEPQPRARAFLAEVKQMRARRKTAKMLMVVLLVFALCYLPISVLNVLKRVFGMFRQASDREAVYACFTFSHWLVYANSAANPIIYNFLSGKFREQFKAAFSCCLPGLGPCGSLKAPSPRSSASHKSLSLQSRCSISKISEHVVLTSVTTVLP
Experimental: (§1) Measurement of Orexin Receptor Antagonistic Activity
(§2) CHO cells forcibly expressing human OX1 receptor or human OX2 receptor were seeded in each well of 384 well black transparent bottom plate (BD Falcon) at 7,500 cells/well, and cultured for one day in a 5% CO2 incubator at 37° C. […] The plate was stood for 30 min in a 5% CO2 incubator at 37° C., and further stood at room temperature for 30 min. A test compound prepared by diluting with assay buffer B (HBSS, 20 mM HEPES, 0.1% BSA) was added at 10 μL/well, and then OX-A (OX1 receptor, final concentration; 1 nM) or OX-A (OX2 receptor, final concentration; 0.3 nM) was added at 10 μL/well, and the fluorescence value was measured by FLIPRtetra (Molecular Devices) every one sec for 2 min.

human OX2 receptor = molecular target: T2, human OX2 receptor (Homo sapiens, UniProt O43614); assay: as above; assay type: cell-based; conditions: CHO, 10 μM test compound; CHO cells expressing human OX2 receptor; OX-A 0.3 nM; read-out: Human Orexin2 receptor inhibition (at 10 μM)
T2 construct: expressed in transfected cells; host or cells: CHO cells
T2 sequence (O43614 1-444): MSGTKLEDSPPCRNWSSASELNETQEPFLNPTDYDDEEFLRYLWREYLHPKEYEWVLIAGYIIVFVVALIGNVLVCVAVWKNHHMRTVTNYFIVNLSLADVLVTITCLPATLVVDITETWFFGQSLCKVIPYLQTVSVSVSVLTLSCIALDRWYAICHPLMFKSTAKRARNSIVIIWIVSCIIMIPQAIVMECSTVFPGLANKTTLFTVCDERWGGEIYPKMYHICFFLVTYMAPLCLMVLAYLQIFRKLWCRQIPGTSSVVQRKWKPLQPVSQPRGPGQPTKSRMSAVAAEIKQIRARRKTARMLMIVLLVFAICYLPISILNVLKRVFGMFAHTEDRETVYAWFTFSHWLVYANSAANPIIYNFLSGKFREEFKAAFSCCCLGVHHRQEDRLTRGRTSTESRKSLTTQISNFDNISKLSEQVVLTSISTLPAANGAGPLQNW
Experimental: as §1, §2

| SMILES | inhibition at 10 µM (human OX1 receptor) | inhibition at 10 µM (human OX2 receptor) |
| --- | --- | --- |
| Cc1cc(N2CCN(C(=O)c3ccccc3-n3ncnn3)CCO2)nc(C)n1 [Example 31, (2-(2,6-dimethyl-pyrimidin-4-yl)-1,2,5-oxadiazepan-5-yl) (2-(2H-tetrazol-2-yl)phenyl) methanone] | -2% | 100% |
| Cc1cc(N2CCN(C(=O)c3ccccc3-c3cncs3)CCO2)nc(C)n1 [Example 32, (2-(2,6-dimethyl-pyrimidin-4-yl)-1,2,5-oxadiazepan-5-yl) (2-(1,3-thiazol-5-yl)phenyl) methanone] | 38% | 96% |
| COc1cccc(N2CCN(C(=O)c3ccccc3-c3nccs3)CCO2)n1 [Example 36, (2-(6-methoxypyridin-2-yl)-1,2,5-oxadiazepan-5-yl)(2-(1,3-thiazol-2-yl)phenyl)methanone] | 67% | 100% |
| COc1cc(N2CCN(C(=O)c3ccccc3-c3nccs3)CCO2)ccn1 [Example 37, (2-(2-methoxypyridin-4-yl)-1,2,5-oxadiazepan-5-yl)(2-(1,3-thiazol-2-yl)phenyl)methanone] | 19% | 85% |
| Cc1cc(N2CCN(C(=O)c3cc(C4CCC4)ccc3-n3nccn3)CCO2)nc(C)n1 [Example 41, (5-cyclobutyl-2-(2H-1,2,3-triazol-2-yl)phenyl)(2-(2,6-dimethylpyrimidin-4-yl)-1,2,5-oxadiazepan-5-yl)methanone] | 10% | 56% |
| Cc1cc(N2CCN(C(=O)c3ccccc3-c3ncccn3)CCO2)nc(C)n1 [Example 42, (2-(2,6-dimethylpyrimidin-4-yl)-1,2,5-oxadiazepan-5-yl)(2-(pyrimidin-2-yl)phenyl)methanone] | 41% | 101% |
| Cc1cc(N2CCN(C(=O)c3ccccc3-c3ccccn3)CCO2)nc(C)n1 [Example 43, (2-(2,6-dimethylpyrimidin-4-yl)-1,2,5-oxadiazepan-5-yl)(2-(pyridin-2-yl)phenyl)methanone hydrochloride] | 35% | 91% |

The next lines start with the values.

| inhibition at 10 µM (human OX1 receptor) | inhibition at 10 µM (human OX2 receptor) | SMILES |
| --- | --- | --- |
| 44% | 99% | Cc1ccc(-n2nccn2)c(C(=O)N2CCON(c3cccc(C)n3)CC2)c1 [Example 33, (2-(6-methylpyridin-2-yl)-1,2,5-oxadiazepan-5-yl)(5-methyl-2-(2H-1,2,3-triazol-2-yl)phenyl)methanone] |
| 97% | 99% | Cc1cc(C)nc(N2CCN(C(=O)c3cc(C)ccc3-n3nccn3)CCO2)c1 [Example 34, (2-(4,6-dimethylpyridin-2-yl)-1,2,5-oxadiazepan-5-yl)(5-methyl-2-(2H-1,2,3-triazol-2-yl)phenyl)methanone] |
| -4% | 5% | Cc1ccc(-n2nccn2)c(C(=O)N2CCON(c3cc(C)nc(C)c3)CC2)c1 [Example 35, (2-(2,6-dimethylpyridin-4-yl)-1,2,5-oxadiazepan-5-yl)(5-methyl-2-(2H-1,2,3-triazol-2-yl)phenyl)methanone] |
| 92% | 90% | Cc1ccc(-n2nccn2)c(C(=O)N2CCON(c3ncc4ccccc4n3)CC2)c1 [Example 38, (5-methyl-2-(2H-1,2,3-triazol-2-yl)phenyl)(2-(quinazolin-2-yl)-1,2,5-oxadiazepan-5-yl)methanone] |
| 100% | 98% | Cc1ccc(-n2nccn2)c(C(=O)N2CCON(c3nc4ccc(Cl)cc4o3)CC2)c1 [Example 39, (2-(6-chloro-1,3-benzoxazol-2-yl)-1,2,5-oxadiazepan-5-yl)(5-methyl-2-(2H-1,2,3-triazol-2-yl)phenyl)methanone] |
| -16% | 103% | Cc1cc(N2CCN(C(=O)c3cc(C#N)ccc3-n3nccn3)CCO2)nc(C)n1 [Example 44, 3-((2-(2,6-dimethylpyrimidin-4-yl)-1,2,5-oxadiazepan-5-yl)carbonyl)-4-(2H-1,2,3-triazol-2-yl)benzonitrile] |
